# Source: PMC6199744, “Development of Chemical Proteomics for the Folateome and Analysis of the Kinetoplastid Folateome” (ACS Infectious Diseases, 2018)
# Tested on: L. major lysate proteins
# Assay: Multitargeted bead mixture chemoproteomics, single concentration competition, proteome-wide
# Type: binding
# Conditions: for fold change: vehicle control = 1
smiles,measurement,setting,value
NCCOCCOCC(=O)Nc1nc2ncc(CNc3ccc(C(=O)NC(CCC(=O)O)C(=O)O)cc3)nc2c(=O)[nH]1 (stereo not drawn) [compound 6],fold change,"protein LMJF.28.0710 HYPOTHETICAL PROTEIN, CONSERVED (SNARE associated Golgi protein, putative)",1
same,fold change vs vehicle control,"protein LMJF.28.0930 HY[…], CONSERVED",1.01
same,fold change vs vehicle control,protein LMJF.28.0960 40S RIBOSOMAL PROTEIN S14,1.09
same,fold change vs vehicle control,"protein LMJF.28.1530 ATP DEPENDENT DEAD-BOX HELICASE, PUTATIVE",0.91
same,fold change relative to vehicle control,"protein LMJF.28.1730, PROTEASOME REGULATORY NON-ATP-ASE SUBUNIT 2, PUTATIVE",1.1
same,fold change relative to vehicle control,"protein LMJF.28.2310, EUKARYOTIC TRANSLATION INITIATION FACTOR, PUTATIVE",1.1
same,fold change vs vehicle control,"protein LMJF.28.2430 VACUOLAR ATP SYNTHASE SUBUNIT B, PUTATIVE",0.97
same,fold change relative to vehicle control,"protein LMJF.28.2770, HEAT-SHOCK PROTEIN HSP70, PUTATIVE",1.35
same,fold change,"protein LMJF.28.2910 GLUTAMATE DEHYDROGENASE, PUTATIVE",0.9
same,fold change vs vehicle control,"protein LMJF.29.0120 PROTEASOME REGULATORY NON-ATPASE SUBUNIT, PUTATIVE",1
same,fold change,"protein LMJF.29.0620 ATP-BINDING CASSETTE PROTEIN SUBFAMILY A, MEMBER 10, PUTATIVE",0.81
same,fold change vs vehicle control,"protein LMJF.29.0760 […] BI[…], PUTATIVE,HEAT SHOCK PROTEIN 90, PUTATIVE",1.05
same,fold change relative to vehicle control,"protein LMJF.29.0850, HIGH MOBILITY GROUP PROTEIN HOMOLOG TDP-1, PUTATIVE",1.17
same,fold change vs vehicle control,"protein LMJF.29.0940 HY[…], CONSERVED",1.19
same,fold change vs vehicle control,protein LMJF.29.1160 TRYPAREDOXIN,0.8
same,fold change vs vehicle control,"protein LMJF.29.1240 HYPOTHETICAL PROTEIN, UNKNOWN FUNCTION",0.95
same,fold change vs vehicle control,protein LMJF.29.1270 100 kDa heat shock protein (Hsp100),1.02
same,fold change vs vehicle control,"protein LMJF.29.1310 CARNITINE/CHOLINE ACETYLTRANSFERASE, PUTATIVE",1.07
same,fold change relative to vehicle control,"protein LMJF.29.1760, PAR[…] PROTEIN 1D, PUTATIVE",1.02
same,fold change vs vehicle control,"protein LMJF.29.1780 DIPHTHAMIDE SYNTHESIS PROTEIN, PUTATIVE",0.96
same,fold change,"protein LMJF.29.2200 GTP-BINDING PROTEIN, PUTATIVE (dynamin-1-like protein)",1.03
same,fold change,protein LMJF.29.2310 ENOYL-COA HYDRATASE/ISOMERASE-LIKE PROTEIN,0.99
same,fold change vs vehicle control,"protein LMJF.29.2360 ASPARTYL AMINOPEPTIDASE, PUTATIVE,METALLO-PEPTIDASE, CLAN MH, FAMILY M20",0.95
same,fold change,protein LMJF.29.2860 40S RIBOSOMAL PROTEIN S19-LIKE PROTEIN,1.12
same,fold change,"protein LMJF.30.0580 HY[…], CONSERVED (AMP-binding enzyme, putative)",1.03
same,fold change,"protein LMJF.30.0850 SURFACE PROTEIN AMASTIN, PUTATIVE",0.98
same,fold change vs vehicle control,"protein LMJF.30.1250 PYRIDOXAL KINASE, PUTATIVE",1.24
same,fold change vs vehicle control,"protein LMJF.30.2580 RETICULON DOMAIN PROTEIN, 22 KDA POTENTIALLY AGGRAVATING PROTEIN (PAPLE22)",0.95
same,fold change relative to vehicle control,"protein LMJF.30.3090, HY[…], CONSERVED (RNA-binding protein 42, putative)",1.16
same,fold change vs vehicle control,"protein LMJF.30.3240 GLUTAMYL-TRNA SYNTHETASE, PUTATIVE",1.11
same,fold change,"protein LMJF.30.3380 PAS-DOMAIN CONTAINING PHOSPHOGLYCERATE KINASE, PUTATIVE",0.84
same,fold change,"protein LMJF.30.3430 HY[…], CONSERVED (protein mkt1, putative)",1.04
same,fold change,protein LMJF.30.3520 S-ADENOSYLMETHIONINE SYNTHETASE,0.86
same,fold change,"protein LMJF.30.3570 ZINC FINGER-DOMAIN PROTEIN, PUTATIVE",0.86
same,fold change relative to vehicle control,"protein LMJF.31.0080, HYPOTHETICAL PROTEIN, CONSERVED",1.2
same,fold change vs vehicle control,"protein LMJF.31.0340 AMINO ACID PERMEASE, PUTATIVE",1.17
same,fold change,"protein LMJF.31.1130 N-ACYL-L-AMINO ACID AMIDOHYDROLASE, PUTATIVE",0.98
same,fold change vs vehicle control,protein LMJF.31.1640 THIOLASE PROTEIN-LIKE PROTEIN,1.09
same,fold change relative to vehicle control,"protein LMJF.31.2150, PROSTAGLANDIN F2-ALPHA SYNTHASE/D-ARABINOSE DEHYDROGENASE",1.02
same,fold change vs vehicle control,"protein LMJF.31.2250 3,2-TRANS-ENOYL-COA ISOMERASE, MIT[…], PUTATIVE",0.97
same,fold change vs vehicle control,"protein LMJF.32.0750 RNA BINDING PROTEIN, PUTATIVE",1.19
same,fold change vs vehicle control,"protein LMJF.32.1060 DYNEIN, PUTATIVE",0.96
same,fold change relative to vehicle control,"protein LMJF.32.1820, IRON […], PUTATIVE",1.08
same,fold change relative to vehicle control,"protein LMJF.32.2320, C-14 STEROL REDUCTASE, PUTATIVE",1.02
same,fold change relative to vehicle control,"protein LMJF.32.2950, NUCLEOSIDE DIPHOSPHATE KINASE B",0.94
same,fold change vs vehicle control,protein LMJF.32.3870 MYOSIN XXI,0.97
same,fold change relative to vehicle control,"protein LMJF.33.0240, THIOL-DEPENDENT REDUCTASE 1",1.18
same,fold change,"protein LMJF.33.0280 HYPOTHETICAL PROTEIN, CONSERVED",0.92
same,fold change relative to vehicle control,"protein LMJF.33.0890, HY[…], CONSERVED",1.01
same,fold change vs vehicle control,"protein LMJF.33.1070 HY[…], UNKNOWN FUNCTION",1.07
same,fold change vs vehicle control,"protein LMJF.33.1330 CYSTEINE CONJUGATE BETA-LYASE, AMINOTRANSFERASE- LIKE PROTEIN",1.04
same,fold change,"protein LMJF.33.1590 HYPOTHETICAL PROTEIN, CONSERVED (3-ketoacyl-CoA reductase, putative)",0.97
same,fold change relative to vehicle control,"protein LMJF.33.1860, ATP-BINDING CASSETTE PROTEIN SUBFAMILY D, MEMBER 3, PUTATIVE",1.15
same,fold change relative to vehicle control,"protein LMJF.33.2340, SUCCINYL-COA:3-KETOACID-COENZYME A TRANSFERASE, MIT[…], PUTATIVE",1.18
same,fold change relative to vehicle control,"protein LMJF.33.2440, HY[…], CONSERVED",1.19
same,fold change relative to vehicle control,"protein LMJF.33.2540, CARBOXYPEPTIDASE, PUTATIVE,METALLO-PEPTIDASE, CLAN MA(E), FAMILY M32",1.79
same,fold change,"protein LMJF.33.3150 40S RIBOSOMAL PROTEIN S13, PUTATIVE",0.88
same,fold change relative to vehicle control,"protein LMJF.34.0140, MALATE DEHYDROGENASE",1.47
same,fold change vs vehicle control,protein LMJF.34.0440 RIBOSOMAL PROTEIN S25,1.1
same,fold change relative to vehicle control,"protein LMJF.34.2580, HY[…], CONSERVED (ALBA-domain protein 3)",1.11
same,fold change relative to vehicle control,"protein LMJF.34.3250, PUTATIVE PYRUVATE/INDOLE-PYRUVATE CARBOXYLASE, PUTATIVE",0.98
same,fold change,"protein LMJF.34.4370 20S […] 7 SUBUNIT, (PUTATIVE)",0.96
same,fold change vs vehicle control,"protein LMJF.34.4620 HY[…], CONSERVED",1.01
same,fold change,"protein LMJF.35.0070 PROHIBITIN, PUTATIVE",1.04
same,fold change vs vehicle control,"protein LMJF.35.0360 ENOYL-COA HYDRATASE/ISOMERASE FAMILY PROTEIN, CONSERVED",1.24
same,fold change,"protein LMJF.35.0370 ATP-DEPENDENT DEAD-BOX RNA HELICASE, PUTATIVE",1.08
